Tests used:
CHEAL = experiment: Example III: post-emergence foliar-applied weed control in cereal crops, greenhouse; type: in vivo, Chenopodium album L.; details: 21 DAA
Procedure: (§1) Seeds of the desired test plant species were planted in Sun Gro MetroMix® 306 planting mixture, which typically has a pH of 6.0 to 6.8 and an organic matter content of about 30 percent, in plastic pots with a surface area of 103.2 square centimeters (cm^2). When required to ensure good germination and healthy plants, a fungicide treatment and/or other chemical or physical treatment was applied. The plants were grown for 7-36 days in a greenhouse with an approximate 14 hour photoperiod which was maintained at about 18° C. during the day and 17° C. during the night. Nutrients and water were added on a regular basis and supplemental lighting was provided with overhead metal halide 1000-Watt lamps as necessary. The plants were employed for testing when they reached the second or third true leaf stage.
(§2) Treatments consisted of the benzyl ester of 4-amino-3-chloro-5-fluoro-6-(4-chloro-2-fluoro-3-methoxy-phenyl)pyridine-2-carboxylic acid (Compound A), formulated as an SC (suspension concentrate), and a second cereal herbicide alone and in combination.
(§3) Measured aliquots of the benzyl ester of 4-amino-3-chloro-5-fluoro-6-(4-chloro-2-fluoro-3-methoxy-phenyl)pyridine-2-carboxylic acid (Compound A) were placed in 25 milliliter (mL) glass vials and diluted in a volume of 1.25% (v/v) Agri-dex crop oil concentrated to obtain stock solutions. Compound requirements are based upon a 12 mL application volume at a rate of 187 liters per hectare (L/ha). Spray solutions of the second cereal herbicide and experimental compound mixtures were prepared by adding the stock solutions to the appropriate amount of dilution solution to form 12 mL spray solution with active ingredients in two- and three-way combinations. Formulated compounds were applied to the plant material with an overhead Mandel track sprayer equipped with an 8002E nozzle calibrated to deliver 187 L/ha over an application area of 0.503 square meters (m^2) at a spray height of 18 inches (46 cm) above average plant canopy. Control plants were sprayed in the same manner with the solvent blank.
(§4) The treated plants and control plants were placed in a greenhouse as described above and watered by sub-irrigation to prevent wash-off of the test compounds. After 20-22 days, the condition of the test plants as compared with that of the control plants was determined visually and scored on a scale of 0 to 100 percent where 0 corresponds to no injury and 100 corresponds to complete kill.
(§5) Colby's equation was used to determine the herbicidal effects expected from the mixtures (Colby, S. R. 1967. Calculation of the synergistic and antagonistic response of herbicide combinations. Weeds 15:20-22.).

CIRAR = experiment: as above; type: in vivo, Cirsium arvense (L.) Scop.; details: 21 DAA
Procedure: as §1, §2, §3, §4, §5

GALAP = experiment: as above; type: in vivo, Galium aparine L.; details: 21 DAA
Procedure: as §1, §2, §3, §4, §5

KCHSC = experiment: as above; type: in vivo, Kochia scoparia (L.) Schrad.; details: 21 DAA
Procedure: as §1, §2, §3, §4, §5

PAPRH = experiment: as above; type: in vivo, Papaver rhoeas L.; details: 21 DAA
Procedure: as §1, §2, §3, §4, §5

SASKR = experiment: as above; type: in vivo, Salsola tragus L.; details: 21 DAA
Procedure: as §1, §2, §3, §4, §5

SINAR = experiment: as above; type: in vivo, Sinapis arvensis L.; details: 21 DAA
Procedure: as §1, §2, §3, §4, §5

STEME = experiment: as above; type: in vivo, Stellaria media (L.) Vill.; details: 21 DAA
Procedure: as §1, §2, §3, §4, §5

CYPES = experiment: Example I: postemergence foliar-applied weed control, greenhouse; type: in vivo, Cyperus esculentus L. (yellow nutsedge)

COc1c(Cl)ccc(-c2nc(C(=O)OCc3ccccc3)c(Cl)c(N)c2F)c1F [Compound A Benzyl Ester, benzyl ester of 4-amino-3-chloro-5-fluoro-6-(4-chloro-2-fluoro-3-methoxy-phenyl)pyridine-2-carboxylic acid]
Visual Weed Control CHEAL Obs (CHEAL; 2.5 gai/ha): 50% | Visual Weed Control CHEAL Obs (CHEAL; 5 gai/ha): 58% | Visual Weed Control CIRAR Obs (CIRAR; 2.5 gai/ha): 48% | Visual Weed Control CIRAR Obs (CIRAR; 5 gai/ha): 39% | Visual Weed Control CIRAR Obs (CIRAR; 10 gai/ha): 60% | Visual Weed Control GALAP Obs (GALAP; 2.5 gai/ha): 55% | Visual Weed Control GALAP Obs (GALAP; 5 gai/ha): 66% | Visual Weed Control GALAP Obs (GALAP; 10 gai/ha): 77% | Visual Weed Control KCHSC Obs (KCHSC; 2.5 gai/ha): 20% | Visual Weed Control KCHSC Obs (KCHSC; 5 gai/ha): 41% | Visual Weed Control KCHSC Obs (KCHSC; 10 gai/ha): 62% | Visual Weed Control PAPRH Obs (PAPRH; 2.5 gai/ha): 48% | Visual Weed Control PAPRH Obs (PAPRH; 5 gai/ha): 28% | Visual Weed Control PAPRH Obs (PAPRH; 10 gai/ha): 35% | Visual Weed Control SASKR Obs (SASKR; 2.5 gai/ha): 15% | Visual Weed Control SASKR Obs (SASKR; 5 gai/ha): 50% | Visual Weed Control SASKR Obs (SASKR; 10 gai/ha): 67% | Visual Weed Control SINAR Obs (SINAR; 2.5 gai/ha): 70% | Visual Weed Control SINAR Obs (SINAR; 5 gai/ha): 73% | Visual Weed Control STEME Obs (STEME; 2.5 gai/ha): 25% | Visual Weed Control STEME Obs (STEME; 5 gai/ha): 25% | Visual Weed Control STEME Obs (STEME; 10 gai/ha): 27% | Visual Weed Control (%) - 20 DAA CYPES Obs (CYPES; 8 gae/ha): 0% | Visual Weed Control (%) - 21 DAA CYPES Obs (CYPES; 8 gae/ha): 85% | Visual Weed Control (%) - 20 DAA CYPES Obs (CYPES; 16 gae/ha): 75%

Reference: US20130310256A1, “HERBICIDAL COMPOSITIONS COMPRISING 4-AMINO-3-CHLORO-5-FLUORO-6-(4-CHLORO-2-FLUORO-3-METHOXYPHENYL) PYRIDINE-2-CARBOXYLIC ACID OR A DERIVATIVE THEREOF AND VLCFA AND LIPID SYNTHESIS INHIBITING HERBICIDES” (DOW AGROSCIENCES LLC, priority 2008, published 2013)
